# Test results reported in the OligoGym collection.
# After the bases stand the sugars from the 5' end (letter, count) and the backbone: PS all phosphorothioate, else s phosphorothioate and o phosphodiester by linkage. Methylation of C is not given here. e = 2'-O-(2-methoxyethyl) (MOE); k = constrained ethyl (cEt); d = 2'-deoxy (DNA); m = 2'-O-methyl
# Key:
# [1] = target: IRF4; details: ASO
# [2] = target: HSD17B13; details: ASO, HepaRG
Sequence,target mRNA inhibition ([2]; 1 µM) [%],further results
"AAAACAGCCGCCGGCA (sugars k3 d10 k3, PS)",,"target mRNA inhibition ([1]; MM.1R, 1 µM): -9%"
"AAAATATAACGGTGTT (sugars k3 d10 k3, PS)",,"target mRNA inhibition ([1]; SK-MEL-28, 4 µM): 31%"
"AAAATATCGCCCATGA (sugars k3 d10 k3, PS)",,"target mRNA inhibition ([1]; SK-MEL-28, 4 µM): 41%"
"AAACACAGTCTGCTGC (sugars k3 d10 k3, PS)",,"target mRNA inhibition ([1]; SK-MEL-28, 4 µM): 35%"
"AAACAGGAACTGACCT (sugars k3 d10 k3, PS)",,"target mRNA inhibition ([1]; SK-MEL-28, 4 µM): 20%"
"AAACGGACTGGAACAT (sugars k3 d10 k3, PS)",,"target mRNA inhibition ([1]; SK-MEL-28, 4 µM): 7%"
"AAACTTGGGTCACTTA (sugars k3 d10 k3, PS)",,"target mRNA inhibition ([1]; MM.1R, 1 µM): 5%"
"AAAGAGCGCATTTCAG (sugars k3 d10 k3, PS)",,"target mRNA inhibition ([1]; SK-MEL-28, 4 µM): 6%"
"AAAGAGCTGGTAGGTC (sugars k3 d10 k3, PS)",,"target mRNA inhibition ([1]; MM.1R, 1 µM): -35%"
"AAAGAGCTTGCAGGTC (sugars k3 d10 k3, PS)",,"target mRNA inhibition ([1]; SK-MEL-28, 4 µM): 37%"
"AAAGAGGCACCCTCCT (sugars k3 d10 k3, PS)",,"target mRNA inhibition ([1]; SK-MEL-28, 4 µM): -38%"
"AAAGAGGGTCACAGGT (sugars k3 d10 k3, PS)",,"target mRNA inhibition ([1]; SK-MEL-28, 4 µM): 34%"
"AAAGATACAAAACGGA (sugars k3 d10 k3, PS)",,"target mRNA inhibition ([1]; SK-MEL-28, 4 µM): 38%"
"AAAGGTTCCTGTCACC (sugars k3 d10 k3, PS)",,"target mRNA inhibition ([1]; SK-MEL-28, 4 µM): 38%"
"AAAGTAACTGACACGC (sugars k3 d10 k3, PS)",,"target mRNA inhibition ([1]; SK-MEL-28, 4 µM): 67%"
"TGTACCAAACTTGCCC (sugars k3 d10 k3, PS)",53,
"TGTAGTCCTAGGGAGG (sugars k3 d10 k3, PS)",86,target mRNA inhibition ([2]; 0.02 µM): 0%; target mRNA inhibition ([2]; 0.078 µM): 0%; target mRNA inhibition ([2]; 0.313 µM): 32%; target mRNA inhibition ([2]; 1.25 µM): 66%; target mRNA inhibition ([2]; 5 µM): 83%
"TGTAGTGGGAGTCGGA (sugars k3 d1 m1 d8 k3, PS)",50,
"TGTAGTGGGAGTCGGA (sugars k3 d9 k3 e1, PS)",53,
"TGTATGAGGTCTCTCA (sugars k3 d10 k3, PS)",66,
"TGTCCAGGTTGAGATA (sugars k3 d9 k3 e1, PS)",45,
"TGTCCAGGTTGAGATA (sugars k3 d10 k3, PS)",48,
"TGTGAGAAGGCGGTAT (sugars k3 d10 k3, PS)",20,
"TGTTATCAGAAACTTA (sugars k3 d10 k3, PS)",44,
"TGTTGATATTCTGTGG (sugars k3 d10 k3, PS)",68,

Sequence,target mRNA inhibition ([2]; 1 µM) [%],further results
"TTAAAATAGAGTCGGT (sugars k3 d9 k3 e1, PS)",71,
"TTAAGAGAAGGTGCAC (sugars k3 d10 k3, PS)",38,
"TTAAGATGTCCAGGCA (sugars k3 d10 k3, PS)",35,
"TTAATGCCACCCTACC (sugars k3 d9 k3 e1, PS)",20,
"TTACAGCATCAAGACA (sugars kkdddddddddkekek, PS)",22,
"TTACCAGAGCATTCAT (sugars k3 d10 k3, PS)",50,
"TTACCCCTGGCTTTTC (sugars k3 d10 k3, PS)",26,
"TTAGAAGTCAGCCCAA (sugars k3 d10 k3, PS)",37,
"TTAGAATAGTCTTCAG (sugars k3 d10 k3, PS)",52,
"TTAGAGTGAATCATTC (sugars k3 d10 k3, PS)",69,
"TTAGATTGCATAAGAG (sugars k3 d10 k3, PS)",61,
"TTAGCTTAAACTCCAA (sugars k3 d10 k3, PS)",78,target mRNA inhibition ([2]; 0.02 µM): 0%; target mRNA inhibition ([2]; 0.078 µM): 18%; target mRNA inhibition ([2]; 0.313 µM): 38%; target mRNA inhibition ([2]; 1.25 µM): 75%; target mRNA inhibition ([2]; 5 µM): 82%
"TTAGGATTAATTCCCT (sugars k3 d10 k3, PS)",14,
"TTAGTCTTGATGTAGT (sugars k3 d10 k3, PS)",61,
"TTAGTTAGAATAGTCT (sugars k3 d9 k3 e1, PS)",67,
"TTATAACTACAAGAGG (sugars k3 d9 k3 e1, PS)",43,
"TTATAGACTGGGTAGG (sugars k3 d10 k3, PS)",51,
"TTATGTAATAGCCAGT (sugars k3 d9 k3 e1, PS)",77,target mRNA inhibition ([2]; 0.02 µM): 0%; target mRNA inhibition ([2]; 0.078 µM): 13%; target mRNA inhibition ([2]; 0.313 µM): 14%; target mRNA inhibition ([2]; 1.25 µM): 74%; target mRNA inhibition ([2]; 5 µM): 92%
"TTATGTGATTGAGTTC (sugars k3 d10 k3, PS)",34,
"TTATTAGAAGTCAGCC (sugars k3 d10 k3, PS)",36,
"TTATTATGAGGATCTG (sugars k3 d10 k3, PS)",50,
"TTATTCACCACGATTG (sugars k3 d10 k3, PS)",40,
"TTATTGCCTGAACACA (sugars k3 d10 k3, PS)",58,
"TTCACAAAAACTGGGC (sugars k3 d10 k3, PS)",37,
